What was measured:
[1] = target: T1, recombinant feline FP receptor (Felis catus, UniProt A0ABI7XJ69); assay: Total inositol phosphate accumulation, HEK-293 cells with recombinant feline FP receptor; type: cell-based, cat; conditions: read-out: E.C.50, total inositol phosphate accumulation
Description: Ten days after transfection, hygromycin B resistant clones were individually selected and transferred to a separate well on a 24 well plate. At confluence each clone was transferred to one well of a 6 well plate, and then expanded in a 10 cm dish. Cells were maintained under continuous hygromycin selection until use. The stable cat FP receptor transfectants were similarly prepared using […]. Again cells were grown to 50-60% confluency on 10 cm plates and the plasmid pCEP4, incorporating cDNA inserts for the feline FP receptor, was transfected using lipofectin. Hygromycin B selection was started 48 hr post-transfection. Eight days after transfection, hygromycin B resistant clones were selected and transferred to 24 well plates. Ca^2+ signaling studies on recombinant cat and human FP receptors were performed in an identical manner to that described for the CRL 1497 cell studies.
Receptor-mediated phosphoinositide (PI) hydrolysis was determined by measuring the accumulation of total inositol phosphates (IP) in cells preincubated with ^3H-myoinositol. Stable cell lines of HEK 293 cells expressing human or cat FP receptors were plated in 10 cm dishes (10^6 cells per dish in DMEM with 10% FBS). […] The eluate was mixed with 10 ml Aquasol scintillation fluid (Packard Instrument Co.) and total [^3H] inositol phosphates was determined by a liquid scintillation counter.

[2] = target: T1, recombinant feline FP receptor; assay: Radioligand binding competition vs 3H-17-phenyl PGF2α, recombinant feline FP receptor; parameters: species or system cat
Description: Plasma membrane preparations of HEK 293 cells stably transfected with the human or feline FP receptor were obtained as follows. Cells washed with TME buffer were scraped from the bottom of the flasks and homogenized for 30 sec using a Brinkman PT 10/35 polytron. TME buffer was added as necessary to achieve a 40 ml volume in the centrifuge tubes. […] The cell homogenate was centrifuged at 19,000 rpm for 20 min at 4-6° C. using a Beckman Ti-60 rotor. The pellet was then resuspended in TME buffer to provide a final protein concentration of 1 mg/ml, as determined by Biorad assay. […] Incubations were for 60 min at 25° C. and were terminated by the addition of 4 ml of ice-cold 50 mM TRIS-HCl followed by rapid filtration through Whatman GF/B filters and three additional 4 ml washes in a cell harvester (Brandel).

human FP receptor [3] = target: T2, human FP receptor (Homo sapiens, UniProt P43088); assay: Total inositol phosphate accumulation, HEK-293 cells with recombinant human FP receptor; type: cell-based; parameters: expressed in transfected cells; conditions: for % maximal total inositol phosphate accumulation mean χ ± SEM: reference 17-phenyl PGF2α 10^−6 M
T2 sequence (P43088 whole entry): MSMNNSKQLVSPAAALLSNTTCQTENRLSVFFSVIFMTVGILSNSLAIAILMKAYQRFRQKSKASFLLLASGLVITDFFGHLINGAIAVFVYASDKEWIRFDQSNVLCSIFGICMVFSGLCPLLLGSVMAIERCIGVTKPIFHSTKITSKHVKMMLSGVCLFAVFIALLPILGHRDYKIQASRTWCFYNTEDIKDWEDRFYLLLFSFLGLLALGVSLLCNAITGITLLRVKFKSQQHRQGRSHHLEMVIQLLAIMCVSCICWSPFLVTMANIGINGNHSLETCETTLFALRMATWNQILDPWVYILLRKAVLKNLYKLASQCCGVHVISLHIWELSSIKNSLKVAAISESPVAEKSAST
Description: HEK-293 cells were grown in DMEM with 10% fetal bovine serum (FBS), 250 μg ml^−1 G418 (Life Technologies) and 200 μg ml^−1 gentamicin or penicillin/streptomycin. […] For transfection, the cells were grown to 50-60% confluency on 10 cm plates. The plasmid pCEP4 incorporating cDNA inserts for the human FP receptor (20 μg) was added to 500 μl of 250 mM CaCl2. HEPES buffered saline×2 (2×HBSS, 280 mM NaCl, 20 mM HEPES acid, 1.5 mM Na2 HPO4, pH 7.05-7.12) was then added dropwise to a […], with continuous vortexing at room temperature. After 30 min, 9 ml DMEM were added to the mixture. The DNA/DMEM/calcium phosphate mixture was then added to the cells, which had been previously rinsed with 10 ml phosphate buffered saline (PBS). The cells were then incubated for 5 h. at 37° C. in humidified 95% air/5% CO2. The calcium phosphate solution was then removed and the cells were treated with 10% glycerol in DMEM for 2 min. The glycerol solution was then replaced by DMEM with 10% fetal bovine serum (FBS). The cells were incubated overnight and the medium was replaced by DMEM/10% FBS containing 250 μg ml^−1 G418 and penicillin/streptomycin. The following day hygromycin B was added to a final concentration of 200 μg ml^−1.
Receptor-mediated phosphoinositide (PI) hydrolysis was determined by measuring the accumulation of total inositol phosphates (IP) in cells preincubated with ^3H-myoinositol. Stable cell lines of HEK 293 cells expressing human or cat FP receptors were plated in 10 cm dishes (10^6 cells per dish in DMEM with 10% FBS). The following day, the cells were incubated with 18 μCi myo-[2 ^3H] inositol (Amersham; […]) in 6 ml of DMEM with 10% FBS for 24 hours at 37° C. The cells were then rinsed twice with phosphate buffered saline (PBS), incubated for 5 min with 1 ml of trypsin-EDTA, and suspended in 10 ml DMEM containing 25 mM HEPES buffer. Cells were pelleted at 1000 rpm and resuspended in DMEM/25 mM HEPES containing 10 mM LiCl for 10 minutes. Aliquots of 200 μl cell suspension were incubated with 50 μl drug for 30 minutes at 37° C. (duplicate determination), and agonist stimulation was terminated with a 750 μl mixture of chloroform:methanol:4N HCl (100:200:2), followed by addition of 250 μl of chloroform and 0.5 N HCl for extraction of inositol phosphates. A 750 μl volume of the aqueous layer was loaded on columns packed with 0.5 ml of Dowex AG 1-X8 anion-exchange resin (formate form, 100-200 mesh; BioRad) to separate radiolabeled components. The elution procedure consisted of three 3 ml washes with 5 mM inositol, then two elutions with 750 μl of 1.3 M ammonium formate with 0.1 M formic acid. The eluate was mixed with 10 ml Aquasol scintillation fluid (Packard Instrument Co.) and total [^3H] inositol phosphates was determined by a liquid scintillation counter.

human FP receptor [4] = target: T2, human FP receptor; assay: Radioligand binding competition vs 3H-17-phenyl PGF2α, recombinant human FP receptor; parameters: expressed in transfected cells; conditions: for % specific binding mean χ ± SEM: vs 5nM 3H-17-phenyl PGF2α, n = 3
Description: Plasma membrane preparations of HEK 293 cells stably transfected with the human or feline FP receptor were obtained as follows. Cells washed with TME buffer were scraped from the bottom of the flasks and homogenized for 30 sec using a Brinkman PT 10/35 polytron. TME buffer was added as necessary to achieve a 40 ml volume in the centrifuge tubes. TME is comprised of 100 mM TRIS base, 20 mM Mg Cl2, 2 m EDTA; physiological pH is achieved by adding 10 N HCl. The cell homogenate was centrifuged at 19,000 rpm for 20 min at 4-6° C. using a Beckman Ti-60 rotor. The pellet was then resuspended in TME buffer to provide a final protein concentration of 1 mg/ml, as determined by Biorad assay. Radioligand binding assays were performed in a 200 μl volume.
Incubations were for 60 min at 25° C. and were terminated by the addition of 4 ml of ice-cold 50 mM TRIS-HCl followed by rapid filtration through Whatman GF/B filters and three additional 4 ml washes in a cell harvester (Brandel).

T1 sequence (A0ABI7XJ69 entry or part of it): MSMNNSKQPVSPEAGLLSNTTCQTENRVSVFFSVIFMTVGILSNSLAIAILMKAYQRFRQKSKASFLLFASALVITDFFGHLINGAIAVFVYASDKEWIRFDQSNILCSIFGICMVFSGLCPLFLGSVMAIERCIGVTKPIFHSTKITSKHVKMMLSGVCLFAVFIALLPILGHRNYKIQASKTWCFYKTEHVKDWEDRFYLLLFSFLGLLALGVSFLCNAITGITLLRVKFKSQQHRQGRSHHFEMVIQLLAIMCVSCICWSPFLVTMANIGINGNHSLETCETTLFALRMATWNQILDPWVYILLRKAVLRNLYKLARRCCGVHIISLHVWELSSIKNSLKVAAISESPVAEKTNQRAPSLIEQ

O=C(O)CCC/C=C\C[C@@H]1[C@@H](/C=C/[C@@H](O)CCc2ccccc2)[C@H](O)C[C@@H]1O [17-phenyl PGF2α, 17-phenyl prostaglandin F2α, reference compound]
EC50 [1]: 9 nM
affinity for the feline receptor ([2]; radioligand binding): high affinity
IC50 ([2]; vs 5 nM 3H-17-phenyl PGF2α, feline FP receptor, read-out: inhibitory concentration50 (I.C.50), radioligand binding): 43.5 nM
% maximal total inositol phosphate accumulation mean χ ± SEM (human FP receptor [3]; 10^−6 M): 100 ± 1.3%
% maximal total inositol phosphate accumulation mean χ ± SEM (human FP receptor [3]; 10^−7 M): 92.3 ± 0.9%
% maximal total inositol phosphate accumulation mean χ ± SEM (human FP receptor [3]; 10^−8 M): 57.8 ± 2.0%
% maximal total inositol phosphate accumulation mean χ ± SEM (human FP receptor [3]; 10^−9 M): 14.7 ± 3.3%
EC50 (human FP receptor [3]; HEK-293 cells, recombinant human FP receptor, read-out: E.C.50, total inositol phosphate accumulation): 8 nM
% specific binding mean χ ± SEM (human FP receptor [4]; 10^−5 M): 0 ± 0%
% specific binding mean χ ± SEM (human FP receptor [4]; 10^−6 M): 1.7 ± 1.7%
% specific binding mean χ ± SEM (human FP receptor [4]; 10^−7 M): 5.3 ± 1.5%
% specific binding mean χ ± SEM (human FP receptor [4]; 10^−8 M): 24.0 ± 1.2%
% specific binding mean χ ± SEM (human FP receptor [4]; 10^−9 M): 65.0 ± 1.0%
% specific binding mean χ ± SEM (human FP receptor [4]; 10^−10 M): 98 ± 1.1%
IC50 (human FP receptor [4]; vs 5 nM 3H-17-phenyl PGF2α, human FP receptor, read-out: I.C.50, radioligand binding): 2.3 nM
